Active and inactive are the calls of the source. How the calls were made is not given here.
Assay: M. tuberculosis BioA enzyme inhibitors, biochemical, single concentration, dry powder (AID 743184)
Conditions: at 9.99 µM; stronger effect = higher value
With `Cc1ccc(/C=C(\CCC(=O)O)c2nc3ccccc3s2)cc1` the activity score was -6% (inactive).
In the case of `CC(=O)c1ccc(N2CCN(C(=O)c3ccc4c(c3)OCCO4)CC2)cc1`, the activity score is reported as -1.22% (inactive).
With `CC(C)(C)c1ccc(C(=O)N2CCN(c3ccc4c(c3)OCO4)CC2)cc1` the activity score was -3.13% (inactive).
In the case of `O=C(c1ccc2c(c1)OCO2)N1CCN(Cc2ccccc2)CC1`, the activity score is reported as -10.2% (inactive).
For `O=C(Nc1ccncc1)c1cc2nc(C3CC3)cc(C(F)F)n2n1`, the activity score was -0.117% (inactive).
For `CC(=O)c1ccc(N2CCN(C(=O)c3ccc(F)cc3)CC2)cc1`, the activity score was -3.75% (inactive).
With `COc1cccc(NC(=O)CCC2CCN(C(=O)c3ccc(C(C)=O)s3)CC2)c1` the activity score was 1.4% (inactive).
In the case of `COc1cccc(NC(=O)N2CCN(c3ccccc3)CC2)c1`, the activity score is reported as 2.06% (inactive).
With `Cc1ccc(/C=C(\CCCC(=O)O)c2nc3ccccc3s2)cc1[N+](=O)[O-]` the activity score was 1.05% (inactive).
In the case of `O=C(Nc1ccc(Cl)c(-c2nc3ccccc3[nH]2)c1)c1cccnc1`, the activity score is reported as 5.48% (inactive).
In the case of `O=C(Nc1cccnc1)c1cc2nc(-c3cccs3)cc(C(F)(F)F)n2n1`, the activity score is reported as 6.22% (inactive).
With `O=C(Nc1ccc2snnc2c1)N1CCCCC1` the activity score was -5.56% (inactive).
For `CCc1ccc(N2CCN(C(=O)c3ccc4c(c3)OCO4)CC2)cc1`, the activity score was -0.719% (inactive).
With `O=C(Nc1cccc(F)c1)N1CCN(c2ccccc2)CC1` the activity score was -3.46% (inactive).
With `CC(=O)c1ccc(N2CCN(C(=O)c3ccccc3)CC2)cc1` the activity score was -3.73% (inactive).
With `O=C(c1ccc2c(c1)OCO2)N1CCN(c2ccc(F)cc2)CC1` the activity score was -13.9% (inactive).
With `CC(=O)c1ccc(N2CCN(C(=O)c3cccnc3)CC2)cc1` the activity score was -8.01% (inactive).
For `COC(=O)c1c(C(=O)OC)c(-c2cccc(F)c2)n2c1CS(=O)C2` (centres undefined), the activity score was -8.08% (inactive).
For `Cc1nc2ccc(NC(=O)N3CCN(c4ccccc4)CC3)cc2s1`, the activity score was -0.913% (inactive).
In the case of `O=C(Nc1ccc2snnc2c1)N1CCN(c2ccccc2)CC1`, the activity score is reported as -7.17% (inactive).
With `CC(=O)c1ccc(N2CCN(C(=O)c3cccc(Cl)c3)CC2)cc1` the activity score was -11.7% (inactive).
In the case of `O=C(Nc1ccc(Cl)cc1)c1cc2nc(C3CC3)cc(C(F)(F)F)n2n1`, the activity score is reported as -6.7% (inactive).
In the case of `Cc1ccccc1/C=C(\CCC(=O)O)c1nc2ccccc2s1`, the activity score is reported as -6.51% (inactive).
In the case of `Cc1ccc(/C=C(\CC(=O)O)c2nc3ccccc3s2)cc1[N+](=O)[O-]`, the activity score is reported as -2.58% (inactive).
In the case of `O=C(O)CC/C(=C\c1ccccc1[N+](=O)[O-])c1nc2ccccc2s1`, the activity score is reported as -1.5% (inactive).
In the case of `CC(=O)c1ccc(N2CCN(C(=O)c3cccc(F)c3)CC2)cc1`, the activity score is reported as -6.65% (inactive).
With `O=C(Nc1cccnc1)N1CCN(c2ccccc2)CC1` the activity score was -4.1% (inactive).
In the case of `CCc1ccc(C(=O)N2CCN(Cc3ccc4c(c3)OCO4)CC2)cc1`, the activity score is reported as 0.311% (inactive).
For `CC(=O)c1ccc(N2CCN(C(=O)c3ccc(C)cc3)CC2)cc1`, the activity score was -7.19% (inactive).
For `CC(=O)c1ccc(N2CCN(C(=O)c3ccc(Cl)cc3)CC2)cc1`, the activity score was 5.46% (inactive).
For `Cc1cc(C)n2nc(C(=O)Nc3cccnc3)nc2n1`, the activity score was 11.6% (inactive).
In the case of `O=C(COc1ccc2ccc(=O)oc2c1)N1CCN(c2ccc(F)cc2)CC1`, the activity score is reported as 3.38% (inactive).
With `COc1ccc(N2CCN(C(=O)c3ccc4c(c3)OCO4)CC2)cc1` the activity score was -1.28% (inactive).
With `O=C(Nc1cccnc1)c1cnn2c(C(F)(F)F)cc(-c3ccccc3)nc12` the activity score was 11.8% (inactive).
For `O=C(Nc1ccc2[nH]ccc2c1)N1CCN(c2ccccc2)CC1`, the activity score was 29.5% (inactive).
With `O=C(c1ccc2c(c1)OCO2)N1CCN(c2ccccc2)CC1` the activity score was 0.078% (inactive).
With `O=C(Nc1ccc(F)cc1)N1CCN(c2ccccc2)CC1` the activity score was 5.21% (inactive).
In the case of `Cc1ccc(-c2cc(C(F)(F)F)n3nc(C(=O)Nc4cccnc4)cc3n2)cc1`, the activity score is reported as 8.78% (inactive).
With `CC(=O)c1ccc(N2CCN(C(=O)c3ccc4ncsc4c3)CC2)cc1` the activity score was -4.47% (inactive).
In the case of `COc1ccc(NC(=O)N2CCN(c3ccccc3)CC2)cc1`, the activity score is reported as -12.2% (inactive).
In the case of `Cc1nc2cc(NC(=O)N3CCN(c4ccccc4)CC3)ccc2o1`, the activity score is reported as 4.18% (inactive).
In the case of `CC(=O)c1ccc(N2CCN(C(=O)c3ccc(Br)cc3)CC2)c(F)c1`, the activity score is reported as 7.7% (inactive).
For `O=C(Nc1cccnc1)c1cnn2c(C(F)F)cc(C3CC3)nc12`, the activity score was -3.98% (inactive).
With `O=C(Nc1cccc(Cl)c1)N1CCN(c2ccccc2)CC1` the activity score was 3.11% (inactive).
For `Cc1cccc(/C=C(\CCC(=O)O)c2nc3ccccc3s2)c1`, the activity score was 1.92% (inactive).
With `O=C(O)CC/C(=C\c1ccc([N+](=O)[O-])cc1)c1nc2ccccc2s1` the activity score was 1.57% (inactive).
In the case of `CC(=O)c1ccc(N2CCN(Cc3ccc4c(c3)OCO4)CC2)cc1`, the activity score is reported as -2% (inactive).
For `O=C(c1ccc2c(c1)OCO2)N1CCN(c2ccc(Cl)cc2)CC1`, the activity score was -0.291% (inactive).
For `COc1ccc(-c2cc(C(F)(F)F)n3nc(C(=O)Nc4cccnc4)cc3n2)cc1`, the activity score was -9.52% (inactive).
With `O=C(Nc1ccccc1)N1CCN(c2ccccc2)CC1` the activity score was -4.99% (inactive).
For `Cc1ccc(/C=C(\CCC(=O)O)c2nc3ccccc3s2)cc1[N+](=O)[O-]`, the activity score was -15.2% (inactive).
With `COc1ccc(C(=O)N2CCN(c3ccc(C(C)=O)cc3)CC2)cc1` the activity score was 20.7% (inactive).
In the case of `Cc1cc(C)n2nc(C(=O)Nc3cccnc3)cc2n1`, the activity score is reported as 27.1% (inactive).
In the case of `Cc1ccc(NC(=O)N2CCN(c3ccccc3)CC2)cc1`, the activity score is reported as 17.2% (inactive).

Source: PubChem BioAssay AID743184 (Broad Institute, 2013)
